According to US11466020B2, “Compounds and compositions for inhibition and elimination of Zika infection and uses for same” (Cornell University, priority 2017, dated 2022):
Where a name gives a salt, the structure may show the parent alone.

How the values were obtained:
[1] = tested on: hNPCs; assay: hNPC viability, proliferation, apoptosis and identity; assay type: cell-based, human; conditions: for ZIKV induced growth arrest or apoptosis of hNPCs: 72 h after ZIKV (MR766) infection, vs DMSO
Experimental: (A) Scheme of high content chemical screen. (B) Chemical structure of hit compounds. (C) Inhibitory curve and IC50 of HH or AQ on hNPCs (n=6). (D-H) Immunocytochemistry analysis (D), the quantification of the infection rate (E), the quantification of proliferation rate (F), the quantification of cell apoptosis rate (G) and the normalized cell viability (H) of hNPCs at 72 h after ZIKV (MR 766 strain) infection with or without drug treatment. Scale bars, 100 μm. The ZIKV infection rate is defined as the percentage of ZIKV E^+ cells. The proliferation rate is defined as the percentages of Ki67^+ cells. The cell apoptosis rate was defined as the percentage of cleaved-Caspase 3/CAS3^+ cells. The normalized cell viability was calculated by dividing the total cell number of each condition by the total cell number under mock infection conditions. (n=6). (I) qRT-PCR analysis to monitor the total ZIKV vRNA in the supernatant of hNPC cultures at 72 h after ZIKV infection with or without drug treatment. (J) Vero cell reinfection assay to monitor the ZIKV infectious particles in the supernatant of hNPC cultures with or without drug treatment. To perform the Vero cell reinfection assay, hNPCs at 72 h after ZIKV infection were washed three times and changed to drug free medium for an additional 24 h. Vero cells were infected with the supernatant collected from hNPCs for 2 h and changed to virus free medium for an additional 24 h. Vero cells were stained with antibody against ZIKV E and DAPI. Scale bars, 200 μm. (n=3). (K) Quantification of ZIKV infectious particles produced by ZIKV-infected hNPCs with or without compound treatment by the Vero cell reinfection assay. (L) Heatmap analysis of mock-infected hNPCs treated with DMSO (mock); mock infected hNPCs treated with 25 μM HH (HH), mock-infected hNPCs treated with 15 μM AQ (AQ), ZIKV (MR766 strain, MOI=0.125) infected hNPCs treated with DMSO (ZIKV+DMSO); ZIKV-infected hNPCs treated with 25 μM HH (ZIKV+HH), and ZIKV-infected hNPCs treated with 15 μM AQ (ZIKV+AQ). […] (M and N) Immunocytochemistry analysis (M) and quantification of the infection rate (N) of hNPCs at 72 h after ZIKV (PRVABC59 strain) infection with or without drug treatment (n=6). Scale bars, 100 μm. p values were calculated by one-way repeated measures ANOVA with a Bonferroni test for multiple comparisons. *p<0.05, **p<0.01 and ***p<0.001.
(A) Scheme to evaluate the elimination of ZIKV. At day 0, hNPCs were infected with ZIKV for 2 h. After removal of ZIKV infection medium, hNPCs were treated with drug candidates. At day 3, the culture medium was changed to fresh medium without compounds. The cells were maintained in drug-free culture until day 6 and used for immunohistochemistry and qRT-PCR. (B and C) Inhibitory curve and IC50 of HH calculated based on the infection rate (B) and normalized cell viability (C) (n=6). (D and E) Immunocytochemistry analysis (D) and the quantification of infection rate, cell apoptosis rate, and total cell number (E) of hNPCs on day 3 and day 6. Cells was fixed and stained with cleaved Caspase-3 (CAS3), ZIKV E and DAPI. Scale bars, 100 μm. (F) qRT-PCR analysis to monitor the total ZIKV vRNA in the supernatant of hNPC cultures on day 6. Scale bars, 200 μm. (n=3). (G) Vero cell reinfection assay to monitor the infective ZIKV vRNA in the supernatant of hNPC cultures at day 6 after ZIKV infection. Scale bars, 200 μm. (n=3). (H) Quantification of ZIKV infectious particles produced by ZIKV-infected hNPCs at day 6 by the Vero cell reinfection assay. (I) hNPCs with or without ZIKV infection treated with HH maintain hNPC marker expression and differentiation capacity. hNPCs with or without ZIKV MR766 infection were treated with 25 μM HH or DMSO for 3 days and then stained for SOX2, NESTIN and with DAPI. hNPCs with or without ZIKV infection and treated with HH or DMSO for 3 days were differentiated to cortical neurons. The cortical neurons were then fixed and stained for MAP2, TUJ1 and with DAPI. Scale bars, 100 μm. (n=3). […]

[2] = tested on: transcriptional changes induced by ZIKV (MR766 strain) infection; assay: RNA-seq analysis of ZIKV infected hNPCs; assay type: cell-based, human; conditions: 72 h post-inoculation, 25 μM HH or 15 μM AQ

Row | SMILES | ZIKV induced growth arrest or apoptosis of hNPCs [1] | transcriptional changes induced by ZIKV infection (RNA-seq) [2] | cell death rate and total cell number ([1]; ZIKV infected hNPCs, day 6) | ZIKV-induced loss of cell viability ([1]; dose-dependent, compound applied 2 h post infection) | expression of neural progenitor markers SOX2 and NESTIN and differentiation capacity ([1]; hNPCs with or without ZIKV infection treated for 3 days) | cytotoxicity to hNPCs ([1]; highest dose of 100 μM)
1 | CCN(CC)Cc1cc(Nc2ccnc3cc(Cl)ccc23)ccc1O [AQ, amodiaquine dihydrochloride dihydrate] | blocked ZIKV induced growth arrest or apoptosis | reversed the transcriptional changes |  |  |  | 
2 | CN1CCC2=C[C@H](O)[C@H]3OC(=O)c4cc5c(cc4[C@H]3[C@@H]21)OCO5 [HH, hippeastrine hydrobromide] | blocked ZIKV induced growth arrest or apoptosis | reversed the transcriptional changes | comparable to control mock infection conditions | successfully rescued | maintained the expression of neural progenitor markers | no obvious cytotoxicity
